Experiments:
[1] = Antiinflammatory activity in C57BL/6 mouse BMDCs assessed as inhibition of LPS-stimulated TNFalpha production at 50 uM treated 1 hr before LPS challenge measured 18 hrs post stimulation by ELISA; format: functional, BMDC
[2] = Antiinflammatory activity in C57BL/6 mouse BMDCs assessed as inhibition of LPS-stimulated IL12 production at 50 uM treated 1 hr before LPS challenge measured 18 hrs post stimulation by ELISA; format: functional, BMDC
[3] = Antiinflammatory activity in C57BL/6 mouse BMDCs assessed as inhibition of LPS-stimulated IL6 production at 50 uM treated 1 hr before LPS challenge measured 18 hrs post stimulation by ELISA; format: functional; conditions: C57BL/6, BMDC
[4] = Toxicity in C57BL/6 mouse BMDCs at 50 uM; format: cell-based; conditions: bmdc

Structure (SMILES)	inhibition (INH) [1]	inhibition (INH) [2]	inhibition at 50 µM [3]	Activity [4]
COC(OC)[C@H](C)[C@@H]1CC[C@]2(C(=O)O)CC[C@]3(C)[C@H](CC[C@@H]4[C@@]5(C)CC[C@@H](O)[C@@](C)(C(=O)O)[C@@H]5CC[C@]43C)[C@@H]12	64.7%	94.2%	63.6%	Non-toxic
C=C(C)[C@@H]1CC[C@]2(C(=O)O[C@@H]3O[C@H](CO[C@@H]4O[C@H](CO)[C@@H](O)[C@H](O)[C@H]4O)[C@@H](O)[C@H](O)[C@H]3O)CC[C@]3(C)[C@H](CC[C@@H]4[C@@]5(C)CC[C@@H](O)[C@@](C)(C(=O)O)[C@@H]5CC[C@]43C)[C@@H]12	–	<50%	–	Non-toxic
C=C(C)[C@@H]1CC[C@]2(C(=O)O)CC[C@]3(C)[C@H](C[C@@H](O)[C@@H]4[C@@]5(C)CC[C@@H](O[C@@H]6O[C@H](CO)[C@@H](O)[C@H](O)[C@H]6O)C(C)(C)[C@@H]5CC[C@]43C)[C@@H]12	–	<50%	–	Non-toxic
C=C(C)[C@@H]1CC[C@]2(C(=O)O)CC[C@]3(C)[C@H](CC[C@@H]4[C@@]5(C)CC[C@@H](O)[C@@](C)(C(=O)O)[C@@H]5CC[C@]43C)[C@@H]12	–	<50%	–	Non-toxic
C=C(C)[C@@H]1CC[C@]2(C(=O)O)CC[C@]3(C)[C@H](C[C@@H](O)[C@@H]4[C@@]5(C)CC[C@@H](O)[C@@](C)(C=O)[C@@H]5CC[C@]43C)[C@@H]12	–	57.6%	–	Non-toxic
C=C(C)[C@@H]1CC[C@]2(C(=O)O)CC[C@]3(C)[C@H](C[C@@H](O)[C@@H]4[C@@]5(C)CC[C@@H](O)[C@@](C)(CO)[C@@H]5CC[C@]43C)[C@@H]12	–	<50%	–	Non-toxic
C=C(C)[C@@H]1CC[C@]2(C(=O)O[C@@H]3O[C@H](CO[C@@H]4O[C@H](CO)[C@@H](O[C@@H]5O[C@@H](C)[C@H](O)[C@@H](O)[C@H]5O)[C@H](O)[C@H]4O)[C@@H](O)[C@H](O)[C@H]3O)CC[C@]3(C)[C@H](CC[C@@H]4[C@@]5(C)CC[C@@H](O)[C@@](C)(C(=O)O)[C@@H]5CC[C@]43C)[C@@H]12 [ACANKOREOSIDE A]	–	<50%	–	Non-toxic
C=C(C)[C@@H]1CC[C@]2(C(=O)O[C@@H]3O[C@H](CO[C@@H]4O[C@H](CO)[C@@H](O[C@H]5O[C@@H](C)[C@H](O)[C@@H](O)[C@H]5O)[C@H](O)[C@H]4O)[C@@H](O)[C@H](O)[C@H]3O)CC[C@]3(C)[C@H](C[C@@H](O)[C@@H]4[C@@]5(C)CC[C@@H](O)[C@@](C)(C=O)[C@@H]5CC[C@]43C)[C@@H]12 [ACANKOREOSIDE D]	–	<50%	–	Non-toxic
C=C(C)[C@@H]1CC[C@]2(C(=O)O[C@@H]3O[C@H](CO[C@@H]4O[C@H](CO)[C@@H](O[C@H]5O[C@@H](C)[C@H](O)[C@@H](O)[C@H]5O)[C@H](O)[C@H]4O)[C@@H](O)[C@H](O)[C@H]3O)CC[C@]3(C)[C@H](C[C@@H](O)[C@@H]4[C@@]5(C)CC[C@@H](O)C(C)(C)[C@@H]5CC[C@]43C)C12 (some centres undefined) [ACANTRIFOSIDE A]	–	<50%	–	Non-toxic
C=C(C)[C@@H]1CC[C@]2(C(=O)O)CC[C@]3(C)[C@H](C[C@@H](O)[C@@H]4[C@@]5(C)CC[C@@H](O)C(C)(C)[C@@H]5CC[C@]43C)[C@@H]12 [IMPRESSIC ACID]	67.9%	62.6%	–	Non-toxic
C[S+]([O-])c1ccc(-c2nc(-c3ccc(F)cc3)c(-c3ccncc3)[nH]2)cc1 (centres undefined) [SB-203580]	–	84.3%	–	–

Source: ChEMBL document CHEMBL1268968, “Lupane-type triterpenoids from the steamed leaves of Acanthopanax koreanum and their inhibitory effects on the LPS-stimulated pro-inflammatory cytokine production in bone marrow-derived dendritic cells” (Bioorg Med Chem Lett, 2010)
